A short description of data set [1]: Molar enthalpy of transition or fusion. As to conditions: Crystal; Differential scanning calorimeter. Background: Differential scanning calorimetry records heat flow against a reference as temperature is scanned.
For data set [2] the following is noted: Crystal; Differential scanning calorimeter.

Turning to `c1ccc(-c2ccccc2)cc1` [biphenyl], in data set [1], the “Molar enthalpy of transition or fusion” value stood at 4.42 kcal/mol. Moreover, the Normal melting temperature in data set [2] amounted to 69.0 °C.
Turning to `O=C(C(=O)c1ccccc1)c1ccccc1` [1,2-diphenylethanedione], the “Molar enthalpy of transition or fusion” value in data set [1] was determined as 5.57 kcal/mol. Besides, the Normal melting temperature in data set [2] was found to be 95 °C.
For the molecule `O=C(O)C(c1ccccc1)c1ccccc1` [2,2-diphenylethanoic acid], the “Molar enthalpy of transition or fusion” value in data set [1] stood at 7.45 kcal/mol. Besides, the Normal melting temperature in data set [2] is 147.2 °C.
The like results for `O=C(Oc1ccccc1)c1ccccc1O` [phenyl salicylate] were, in that order, 4.54 kcal/mol and 41.8 °C.
For the molecule `c1ccc2ccccc2c1` [naphthalene], in data set [1], the “Molar enthalpy of transition or fusion” value came out at 4.5 kcal/mol. The Normal melting temperature in data set [2] was found to be 80.2 °C.
For `O=C(O)c1ccccc1` [benzoic acid] the same measures were 4.3 kcal/mol and 122.4 °C.
The like results for `CC(=O)Nc1ccccc1` [N-phenylethanamide] were, in that order, 5.22 kcal/mol and 114.4 °C.

Values taken from the NIST ThermoML archive (doi:10.1016/j.tca.2012.03.028).
